Data from US20110288036A1, “Methods for Treating or Preventing Vascular Graft Failure” (priority 2010, published 2011).

Columns and labels:
MKK6 = target: T1, MKK6 (Homo sapiens, UniProt P52564); assay: MKK6 radiometric kinase assay; type: biochemical; conditions: peptide 100 μM
T1 construct: purchased Millipore (KinaseProfiler service)
From the text: (§1) A commercial radiometric assay service was used to test the specificity and potency of MMI-0100 ([…]; SEQ ID NO: 1) by measuring its half maximal inhibitory concentrations (IC50). This quantitative assay measures how much MK2 inhibitor (MMI-0100; […] (SEQ ID NO: 1)) is needed to inhibit 50% of a given biological process or component of a process (i.e., an enzyme, cell, or cell receptor). Specifically, in these assays, a positively charged substrate is phosphorylated with a radiolabeled phosphate group from an ATP if the kinase is not inhibited by an inhibitor peptide. The positively charged substrate then is attracted to a negatively charged filter membrane, quantified with a scintillation counter, and compared to a 100% activity control. ATP concentrations within 15 μM of the apparent Km for ATP were chosen since an ATP concentration near the Km may allow for the kinases to have the same relative amount of phosphorylation activity. The individual conditions for each radiometric assay are as follows.
The reaction was initiated by adding the MgATP. After incubation for 40 minutes at room temperature, 5 μl of the incubation mix was used to initiate the p38MAPK radiometric assay described above.
IC50 values for inhibitor peptides were determined using Millipore's IC50 Profiler Express service. The IC50 value was estimated from a 10-point curve of one-half log dilutions. […]

[1] = test system: human endothelial cell (EC); assay: Phase contrast morphology, endothelial cells; type: cell-based; conditions: 24 hours treatment, vs control cells
Method: (§2) In order to determine the effect of pharmacological doses of MMI-0100 ([…]; SEQ ID NO: 1) on human endothelial cell (EC) and smooth muscle cell (SMC) proliferation, human EC and SMC cultures were treated with three concentrations (0.25 mM, 0.5 mM, and 1 mM) of MMI-0100 ([…] (SEQ ID NO: 1)) following pre-treatment with TNF-α.

[2] = test system: human saphenous vein (HSV); assay: Muscle bath: sodium nitroprusside-induced relaxation of human saphenous vein; type: cell-based; conditions: for relaxation: 100 μM pretreatment, phenylephrine 10^-6 M, percent relaxation per method
Method: De-identified, discarded segments of human saphenous vein (HSV) were collected from consented patients undergoing coronary artery or peripheral vascular bypass surgeries. HSV segments were stored in a saline solution until the end of the surgical procedure, at which time they were placed in cold transplant harvest buffer (100 mM potassium lactobionate, 25 mM KH2PO4, 5 mM MgSO4, 30 mM Raffinose, 5 mM Adenosine, 3 mM Glutathione, 1 mM Allopurinol, 50 g/L Hydroxyethyl starch, pH 7.4). The vessels were used within 24 hours of harvest. Using sterile technique, HSV segments were transferred to a 60-mm Petri dish under a sterile hood. The edges (0.5 mm) of each segment were removed with a blade and excess adventitial tissue and fat removed with minimal manipulation. HSV segments were cut into consecutive rings of approximately 1.0 mm in width to be utilized for organ culture or muscle bath experiments. Two rings from each segment were immediately fixed in 10% formalin at 37° C. for 30 min to obtain pre-culture intimal thickening measurements.
In preparation for testing vein segment functional viability, HSV rings were weighed and their lengths recorded. To focus on smooth muscle responses, the endothelium was mechanically denuded by rolling the luminal surface of each ring at the tip of a fine vascular forceps before suspension in a muscle bath containing a bicarbonate buffer (120 mM NaCl, 4.7 mM KCl, 1.0 mM MgSO4, 1.0 mM NaH2PO4, 10 mM glucose, 1.5 mM CaCl2, and 25 mM […], pH 7.4) equilibrated with 95% O2 and 5% CO2 at 37° C. The rings were stretched and the length progressively adjusted until maximal tension was obtained. […] Rings were maintained at a resting tension of 1 g, which produces maximal responses to contractile agonists as previously determined, and equilibrated for 2 hours in buffer. […]
HSV rings were first contracted with 110 mM KCl (with equimolar replacement of NaCl in bicarbonate buffer) and the generated force was measured. […] Rings were relaxed with a cumulative log dose of sodium nitroprusside (SNP), a nitric oxide donor, and the force generated was recorded. […] Rings were then incubated with either buffer alone or buffer plus 100 μM of MMI-0100 ([…] (SEQ ID NO: 1)) for 2 hours, followed by treatment with the same doses of PE and SNP, and the forces generated again recorded. Measured force was normalized for ring weight and length and percent relaxation was calculated; force generated with 10^−6 M of PE was set as 0% relaxation.
The enhancing effect of MMI-0100 ([…]; SEQ ID NO: 1) on smooth muscle relaxation was examined by pre-treating harvested human saphenous vein (HSV) with MMI-0100 ([…]; SEQ ID NO: 1) before SNP treatment. […] Percentage of relaxation at 0, 0.01, 0.1, and 1.0 μM of SNP was measured. […]

MEK1 = target: T2, MEK1 (Homo sapiens, UniProt Q02750); assay: MEK1 radiometric kinase assay; type: biochemical; conditions: peptide 100 μM
T2 construct: purchased Millipore (KinaseProfiler service)
From the text: as §1
The reaction was initiated by adding the MgATP. After incubation for 40 minutes at room temperature, 5 μl of this incubation mix was used to initiate the MAPK2 radiometric assay whose reaction condition was the same as the condition for p38 MAPK assay described above.
IC50 values for inhibitor peptides were determined using Millipore's IC50 Profiler Express service. […]

[3] = test system: human smooth muscle cell (SMC); assay: Phase contrast morphology, smooth muscle cells; type: cell-based; conditions: 24 hours treatment, vs control cells
Method: as §2

T1 sequence (P52564 whole entry, species assumed): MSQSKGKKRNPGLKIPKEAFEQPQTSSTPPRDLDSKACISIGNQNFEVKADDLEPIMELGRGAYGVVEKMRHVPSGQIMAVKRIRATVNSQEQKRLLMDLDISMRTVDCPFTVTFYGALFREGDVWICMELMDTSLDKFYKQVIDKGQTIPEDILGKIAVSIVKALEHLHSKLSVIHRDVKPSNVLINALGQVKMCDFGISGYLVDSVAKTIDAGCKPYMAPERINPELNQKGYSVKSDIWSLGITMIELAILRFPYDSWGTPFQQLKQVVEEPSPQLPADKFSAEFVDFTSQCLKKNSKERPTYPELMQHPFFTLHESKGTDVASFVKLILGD

Sequence: YARAAARQARAKALARQLGVAA [MMI-0100]
- Percent Activity, MKK6 (MKK6): 50%
- morphological changes of EC [1]: no obvious morphological changes
- increase in relaxation compared to control-pretreated HSV ([2]; 30 μM, 2 hrs pretreatment, norepinephrine contraction, SNP 0-1 μM): about 40%
- relaxation ([2]; SNP 10^-7 M, untreated control 72.768±6.99): 92.54±3.09
- relaxation ([2]; SNP 10^-8 M, untreated control 10.825±5.62): 25.622±6.38
- Percent Activity, MEK1 (MEK1): 68%
- morphological changes of SMC [3]: no obvious morphological changes
